Tests used:
[1] = target: T1, SyCrtE (Synechocystis sp. PCC 6803, UniProt P72683); test: LC-MS of prenyl pyrophosphate products; assay type: biochemical; settings: 50 µM DMAPP, 100 µM IPP, 10 mM MgCl2, 25 mM MOPSO pH 7.2, 30 °C, 2 h
T1 sequence (P72683 1-302): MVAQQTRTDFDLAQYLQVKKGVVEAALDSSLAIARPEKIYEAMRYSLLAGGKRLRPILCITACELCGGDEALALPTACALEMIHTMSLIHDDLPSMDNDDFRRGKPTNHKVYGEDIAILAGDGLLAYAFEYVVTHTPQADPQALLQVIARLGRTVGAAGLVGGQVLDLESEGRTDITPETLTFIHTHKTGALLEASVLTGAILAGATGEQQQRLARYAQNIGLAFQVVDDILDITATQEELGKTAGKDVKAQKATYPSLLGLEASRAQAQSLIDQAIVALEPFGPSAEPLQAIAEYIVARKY

[2] = target: T2, SeCrtE (Synechococcus elongatus, UniProt Q31Q61); test: LC-MS of prenyl pyrophosphate products; assay type: biochemical; settings: 50 µM DMAPP, 100 µM IPP, 10 mM MgCl2, 25 mM MOPSO pH 7.2, 30 °C, 2 h
T2 sequence (Q31Q61 1-301): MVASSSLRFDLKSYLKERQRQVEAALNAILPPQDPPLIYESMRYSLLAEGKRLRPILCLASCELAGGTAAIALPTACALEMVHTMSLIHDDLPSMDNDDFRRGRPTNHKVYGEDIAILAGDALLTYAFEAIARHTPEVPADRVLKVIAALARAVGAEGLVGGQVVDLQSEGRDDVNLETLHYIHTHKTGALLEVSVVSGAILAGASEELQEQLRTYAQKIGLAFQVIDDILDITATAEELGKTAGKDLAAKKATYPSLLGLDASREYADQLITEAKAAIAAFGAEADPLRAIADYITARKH

[3] = target: CrtE from Synechococcus elongatus sp. PCC 7942 with a C-terminal His-tag (SeCrtE-His) (Synechococcus elongatus sp. PCC 7942); test: crystal structure
[4] = target: the molecule itself; test: crystal structure

CC(C)=CCC/C(C)=C/CC/C(C)=C/CC/C(C)=C/COP(=O)(O)OP(=O)(O)O [GGPP]
LC-MS of prenyl pyrophosphate products [1]: Under identical experimental conditions, SyCrtE produced GGPP, GPP and FPP | LC-MS of prenyl pyrophosphate products [2]: For SeCrtE, only GGPP formation was detected

CrtE from Synechococcus elongatus sp. PCC 7942 with a C-terminal His-tag (SeCrtE-His) (enzyme)
stoichiometry N [3]: 2

B1: CrtE from Synechocystis sp. PCC 6803 with a C-terminal His-tag (SyCrtE-His) (enzyme)
chain: MVAQQTRTDFDLAQYLQVKKGVVEAALDSSLAIARPEKIYEAMRYSLLAGGKRLRPILCITACELCGGDEALALPTACALEMIHTMSLIHDDLPSMDNDDFRRGKPTNHKVYGEDIAILAGDGLLAYAFEYVVTHTPQADPQALLQVIARLGRTVGAAGLVGGQVLDLESEGRTDITPETLTFIHTHKTGALLEASVLTGAILAGATGEQQQRLARYAQNIGLAFQVVDDILDITATQEELGKTAGKDVKAQKATYPSLLGLEASRAQAQSLIDQAIVALEPFGPSAEPLQAIAEYIVARKY
stoichiometry N [4]: 2

From publication PMC9796789 (The Febs Journal, 2022)
